A short description of this series: MRI造影効果: MRI contrast effect of solutions (T1- and T2-weighted, 7.0T). The following applies: aqueous solution, 0, 1.3, 2.5, 5mM, T1- and T2-weighted images, Fig. 6(C). The format is physicochemical.

For the molecule `Cc1ccc(Nc2nccc(N(C)c3ccc4c(C)n(C)nc4c3)n2)cc1S(N)(=O)=O` [比較例1, 2-メチル-5-[[4-[メチル(2,3-ジメチル-2H-インダゾール-6-イル)アミノ]ピリミジン-2-イル]アミノ]ベンゼンスルホンアミド], the MRI image appearance result was “いずれの濃度においても白色の高シグナル”.

For the origin of these results see patent JP2017128553A, “抗癌剤、抗癌剤の制御方法” (IHI Corp, priority 2016, dated 2017).
